From article PMC12454493, “Insight on novel sulfamoylphenyl pyrazole derivatives as anticancer carbonic anhydrase inhibitors” (Molecular Diversity, 2024)
“And” between values parts separate entries of the source, which are not always exact repeats. Identical values can stand only once.

Tests used:
SR = assay: NCI-60 one-dose SRB screen (Leukemia); assay type: cell-based; details: Homo sapiens, single dose 10 µM, 48 h, read-out: Growth inhibition percent (GI %)
Description: (§1) The National Cancer Institute (NCI) Developmental Therapeutic Program (www.dtp.nci.nih.gov) selected the 20 novel synthesized compounds 4a-e, 5a-e, 6a-c, 9a-e, 10 and 11 to test for their anticancer activity at a single dose of 10 µM using SRB assay. […] Supplementary Data S3; Table S1 presents the detailed screening results of the most promising compounds. The preliminary screening’s detailed results for the remaining compounds are elucidated in the (Supplementary Data S3; Table S2).
(§2) The guidelines of the Drug Evaluation Branch’s protocol at the NCI in Bethesda served as the basis for the in vitro anticancer screening assays. at one dose 10 µM against a panel of 60 cancer cell lines. The human tumor cell lines used belonged to nine panels: leukemia, melanoma, lung, colon, CNS, ovarian, renal, prostate and breast cancers using the sulforhodamine B (SRB) assay in a 48 h drug exposure protocol.

HL-60(TB) = assay: NCI-60 one-dose SRB screen (Leukemia); assay type: cell-based; details: Homo sapiens, single dose 10 µM, 48 h, read-out: Growth inhibition percent (GI %)
Description: as §1, §2

RPMI-8226 = assay: NCI-60 one-dose SRB screen (Leukemia); assay type: cell-based; details: Homo sapiens, single dose 10 µM, 48 h, read-out: Growth inhibition percent (GI %)
Description: as §1, §2

MOLT-4 = assay: NCI-60 one-dose SRB screen (Leukemia); assay type: cell-based; details: Homo sapiens, single dose 10 µM, 48 h, read-out: Growth inhibition percent (GI %)
Description: as §1, §2

CCRF-CEM = assay: NCI-60 one-dose SRB screen (Leukemia); assay type: cell-based; details: Homo sapiens, single dose 10 µM, 48 h, read-out: Growth inhibition percent (GI %)
Description: as §1, §2

K-562 = assay: NCI-60 one-dose SRB screen (Leukemia); assay type: cell-based; details: Homo sapiens, K562, single dose 10 µM, 48 h, read-out: Growth inhibition percent (GI %)
Description: as §1, §2

UACC-62 = assay: NCI-60 one-dose SRB screen (Melanoma); assay type: cell-based; details: Homo sapiens, single dose 10 µM, 48 h, read-out: Growth inhibition percent (GI %)
hCA IX = hCA IX (Homo sapiens, UniProt Q16790); assay: CA inhibitory activity, spectrophotometric p-NPA assay; assay type: biochemical; details: p-NPA substrate, pH 7.5, 25 °C, triplicate; read-out: IC50 (µM) ± SD hCA IX
Description: The software used to calculate CA IC50 along with statistical analysis of the results is GraphPad Prism 9.00. Results were estimated by using one-way ANOVA and the Bonferroni’s multiple comparisons posthoc test was performed (P < 0.05) [46]
Carbonic anhydrase inhibitory activity:
The spectrophotometric assay was conducted in HEPES-Tris buffer, NaCl of pH 7.5 (20mM) at 25◦C. Each inhibitory well-consisted of 50 μL of assay buffer solution, 20 μL of hCA enzyme solution (20 ng/μL in Assay Buffer), and 50 μL of test compound in HPLC grade DMSO (maintain 10% of the final concentration). The mixture solution was
Substrate p-nitrophenyl acetate (p-NPA) (0.7mM) was prepared in HPLC grade methanol and the reaction was started by adding 20 μL to a well in a 96-well-plate. The amount of product formed was measured for 30 min continuously at 1 min intervals at 400 nm in a 96-well-plate using xMARK microplate spectrophotometer, Bio-Rad (USA). The activity of the controlled compound was taken as 100%. All experiments were carried out in triplicates of each used concentration, and results are represented as a

MCF-7 = assay: NCI-60 one-dose SRB screen (Breast Cancer); assay type: cell-based; details: Homo sapiens, MCF7, single dose 10 µM, 48 h, read-out: Growth inhibition percent (GI %)
Description: as §1, §2

BT-549 = assay: NCI-60 one-dose SRB screen (Breast Cancer); assay type: cell-based; details: Homo sapiens, single dose 10 µM, 48 h, read-out: Growth inhibition percent (GI %)
Description: as §1, §2

HS 578T = assay: NCI-60 one-dose SRB screen (Breast Cancer); assay type: cell-based; details: Homo sapiens, single dose 10 µM, 48 h, read-out: Growth inhibition percent (GI %)
Description: as §1, §2

T-47D = assay: NCI-60 one-dose SRB screen (Breast Cancer); assay type: cell-based; details: Homo sapiens, T47D, single dose 10 µM, 48 h, read-out: Growth inhibition percent (GI %)
Description: as §1, §2

MDA-MB-468 = assay: NCI-60 one-dose SRB screen (Breast Cancer); assay type: cell-based; details: Homo sapiens, single dose 10 µM, 48 h, read-out: Growth inhibition percent (GI %)
Description: as §1, §2

MDA-MB-231/ATCC = assay: NCI-60 one-dose SRB screen (Breast Cancer); assay type: cell-based; details: Homo sapiens, single dose 10 µM, 48 h, read-out: Growth inhibition percent (GI %)
Description: as §1, §2

SMILES | inhibition at 10 µM (SR) [%] | inhibition at 10 µM (HL-60(TB)) [%] | inhibition at 10 µM (RPMI-8226) [%] | inhibition at 10 µM (MOLT-4) [%] | inhibition at 10 µM (CCRF-CEM) [%] | inhibition at 10 µM (K-562) [%] | inhibition at 10 µM (UACC-62) [%] | melting point [°C] | IC50 (hCA IX) | inhibition at 10 µM (MCF-7) [%] | inhibition at 10 µM (BT-549) [%] | inhibition at 10 µM (HS 578T) [%] | inhibition at 10 µM (T-47D) [%] | inhibition at 10 µM (MDA-MB-468) [%] | inhibition at 10 µM (MDA-MB-231/ATCC) [%]
Cc1ccc(-c2nn(-c3ccc(S(N)(=O)=O)cc3)cc2C(=O)NNC(N)=S)cc1 [Compound 9b, 2-[1-(4-Sulfamoylphenyl)-3-(p-tolyl)-1H-pyrazole-4-carbonyl] hydrazine-1-carbothioamide] | < 5 | < 5 | < 5 | < 5 | 19.6 | < 5 | 5.9 | 178 to 180 | 0.33 µM and 0.339 µM | < 5 | < 5 | < 5 | < 5 | < 5 | < 5
CS(=O)(=O)c1ccc(-c2nn(-c3ccc(S(N)(=O)=O)cc3)cc2C(=O)NNC(N)=S)cc1 [Compound 9e, 2-[3-(4-(Methylsulfonyl)phenyl)-1-(4-sulfamoylphenyl)-1H-pyrazole-4-carbonyl] hydrazine-1-carbothioamide] | < 5 | < 5 | < 5 | < 5 | < 5 | < 5 | 7.82 | 261 to 262 |  | < 5 | < 5 | 7.37 | < 5 | 7.21 | < 5
NC(=S)NNC(=O)c1cn(-c2ccc(S(N)(=O)=O)cc2)nc1-c1ccc(Br)cc1 [Compound 9d, 2-[3-(4-Bromophenyl)-1-(4-sulfamoylphenyl)-1H-pyrazole-4-carbonyl] hydrazine-1-carbothioamide] | 6.97 | < 5 | < 5 | < 5 | < 5 | < 5 | < 5 | 238 to 241 |  | < 5 | < 5 | 6.72 | 7.04 | < 5 | < 5
CCOC(=O)c1ccc(NC(=O)COC(=O)c2cn(-c3ccc(S(N)(=O)=O)cc3)nc2-c2ccc(Br)cc2)cc1 [Compound 5d, 2-[(4-(Ethoxycarbonyl)phenyl)amino]-2-oxoethyl 3-(4-bromophenyl)-1-(4-sulfamoylphenyl)-1H-pyrazole-4-carboxylate] | 80.1 | 89.4 | 80.3 | 94 | 85.8 | 80.4 | 58.7 |  | 0.631 ± 0.029 µM | 91 | 36.6 | 51.3 | 60.2 | 67.6 | 43.7
COc1ccc(-c2nn(-c3ccc(S(N)(=O)=O)cc3)cc2C(=O)OCC(=O)Nc2ccc(S(N)(=O)=O)cc2)cc1 [Compound 4c, 2-Oxo-2-[(4-sulfamoylphenyl)amino] ethyl 3-(4-methoxyphenyl)-1-(4-sulfamoylphenyl)-1H-pyrazole-4-carboxylate] | < 5 | 13.9 | 9.19 | < 5 | < 5 | 9.61 | < 5 |  | 0.17 µM and 0.175 µM | 8.77 | 41.6 | < 5 | < 5 | < 5 | < 5
